Four molecules from ChEMBL document CHEMBL1141281, “Targeted natural product isolation guided by HPLC-SPE-NMR: constituents of Hubertia species” (2007) can be followed below.

A short description of assay [1]: Inhibition of Cu2+ induced human LDL oxidation. It is filed as functional.
Assay [2] concerns Escherichia coli. The experiment in a line: Antimicrobial activity against Escherichia coli ATCC 11229 at 500 ug/mL after 24 hrs by MTT assay. It is filed as functional, organism-based. In general terms: Tetrazolium dyes change colour on reduction, which living cells bring about.
The subject of assay [3] is Staphylococcus aureus. Kind of assay: Antimicrobial activity against Staphylococcus aureus ATCC 6538 at 500 ug/mL after 24 hrs by MTT assay. It is filed as functional, organism-based.
In assay [4] the test system is Bacillus subtilis. The experiment in a line: Antimicrobial activity against Bacillus subtilis ATCC 6633 at 500 ug/mL after 24 hrs by MTT assay. It is filed as functional, organism-based.
For assay [5], the system named is Escherichia coli. The experiment in a line: Antimicrobial activity against Escherichia coli ATCC 11229 after 24 hrs by MTT assay. Type of assay: functional. As to conditions: ATCC 11229, 24 h.
Assay [6] deals with Staphylococcus aureus. The experiment in a line: Antimicrobial activity against Staphylococcus aureus ATCC 6538 after 24 hrs by MTT assay. Type of assay: functional. As to conditions: ATCC 6538, 24 h.
The subject of assay [7] is Bacillus subtilis. The experiment in a line: Antimicrobial activity against Bacillus subtilis ATCC 6633 after 24 hrs by MTT assay. As to conditions: ATCC 6633, 24 h. It is filed as functional.

Values after ≈ are worked out from the molar mass of the structure shown. Active and inactive are the calls of the source. The rule behind the calls is not given here.

In the case of `O=C(/C=C/c1ccc(O)c(O)c1)O[C@@H]1C[C@](O)(C(=O)O)C[C@@H](OC(=O)/C=C/c2ccc(O)c(O)c2)[C@H]1O`, the Activity entry in assay [1] was “Dose-dependent effect”.

Consider `O=C1C=CC(O)(CC(=O)O[C@H]2[C@H](OC(=O)/C=C/c3ccc(O)c(O)c3)C[C@](O)(C(=O)O)C[C@H]2OC(=O)/C=C/c2ccc(O)c(O)c2)C=C1`, for which the outcome with Escherichia coli [2], in the assay on Staphylococcus aureus [3] and in the assay with Bacillus subtilis [4] was inactive.

As to `O=C(C=Cc1ccc(O)c(O)c1)O[C@@H]1C[C@](O)(C(=O)O)C[C@@H](O)[C@H]1O`, the Activity result in assay [1] was “Dose-dependent effect”.

A word on the MIC: it is the least concentration at which growth counts as inhibited. A lower MIC goes with a more susceptible organism. As to `CN[C@@H]1[C@H](O[C@H]2[C@H](O[C@H]3[C@H](O)[C@@H](O)[C@H](N=C(N)N)[C@@H](O)[C@@H]3N=C(N)N)O[C@@H](C)[C@]2(O)C=O)O[C@@H](CO)[C@H](O)[C@H]1O` (stereo in doubt) [STREPTOMYCIN], the MIC against Escherichia coli [5], in the assay on Staphylococcus aureus [6] and against Bacillus subtilis [7] was 12.5 µg/mL (≈ 21.5 µM) each time.
